# From US8058285B2, “Substituted pyrido [3′, 2′: 4, 5] thieno [3, 2-D] pyrimidines and pyrido [3′, 2′: 4, 5] furo [3, 2-D] pyrimidines used as inhibitors of the PDE-4 and/or the release of TNF-ALPHA” (The Medicines Company (Leipzig) GmbH, priority 2004, dated 2011)
# Structures can show the parent of a compound that is named as a salt.
# Key:
# [1] = test system: TNFα release; assay: LPS-induced TNFα release in diluted human blood (ELISA); assay type: cell-based; details: LPS 1 μg/ml, human blood diluted 1:5, 24 h; read-out: IC50 value in the TNFα inhibitory assay
# Excerpt: Isolated leukocytes can be stimulated for the release of cytokines in different ways. Lipopolysaccharides (LPS) are a stimulus for the investigation of the TNFα release. LPS is part of bacterial cell walls and is released when the bacteria are killed (by antibiotics or the natural immune system). LPS stimulates in particular the activity of phagocytizing leukocytes (tissue macrophages, granulocytes, monocytes) and causes the infiltration of leukocytes from the peripheral blood into the affected tissue. A cytokine of special significance for these mechanisms is TNFα which is secreted in large amounts by the affected cells. The main source are here monocytes and macrophages. TNFα initiates and prolongs the inflammatory process in cooperation with other mediators.
# For the investigation of the effect on the LPS-induced TNFα release a method was used which was described by Marx, D., Tassabehji, M., Heer, S., Hüttenbrink, K.-B., and I. Szelenyi, Pulmonary Pharmacology & Therapeutics (2002) 15, 7-15. The method is briefly: Human blood was taken from various donors, rendered incoagulable by the addition of 10 mM Na citrate and diluted 1:5 with RPMI 1640 cell culture medium. The test substances were added to the blood samples at various concentrations. 15 min later, the leukocytes were stimulated by the addition of lipopolysaccharides (LPS) from Salmonella abortus equi at a final concentration of 1 μg/ml. After the incubation of the test batches at 37° C. and under 5% CO2 in a water-saturated air for 24 h, the blood was centrifuged and the TNFα concentration in the cell-free supernatant was accurately measured using a purchasable ELISA (BD Biosciences) according to the manufacturer's instructions.
# [2] = target: T1, PDE-4A (Homo sapiens, UniProt P27815); assay: PDE-4A inhibitory assay (SPA); assay type: biochemical
# T1 construct: PDE-4A catalytic domain comprising amino acids 342-704; made in house; host or cells: Escherichia coli
# T1 sequence (P27815 342-704): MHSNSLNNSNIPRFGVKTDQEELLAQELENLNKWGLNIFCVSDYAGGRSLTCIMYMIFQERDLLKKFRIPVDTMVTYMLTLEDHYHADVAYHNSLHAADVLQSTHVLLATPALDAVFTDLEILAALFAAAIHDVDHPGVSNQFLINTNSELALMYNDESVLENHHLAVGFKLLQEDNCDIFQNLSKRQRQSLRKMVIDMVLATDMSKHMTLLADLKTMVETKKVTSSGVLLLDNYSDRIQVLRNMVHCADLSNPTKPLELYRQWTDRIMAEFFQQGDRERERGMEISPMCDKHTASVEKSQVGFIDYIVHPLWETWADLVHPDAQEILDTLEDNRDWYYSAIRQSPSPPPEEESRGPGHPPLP
# How it was run: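 Human recombinant PDE-4A catalytic domain (aa 342-704), E. coli-expressed. SPA with 1 μM [^3H]-cAMP substrate in 100 mM Tris-HCl pH 7.5, 5 mM MgCl2, 1% DMSO; 20 min at 22° C. Non-specific activity with 100 μM rolipram subtracted.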
IC50 [1] [nM],IC50 [2] [nM],Structure (SMILES)
< 2000,2 to 50,"CCOc1nc(N2CCNCC2)nc2c1sc1nc(-c3cc[n+]([O-])cc3)cc(C(F)(F)F)c12 [4-Ethoxy-7-(1-oxy-pyridin-4-yl)-2-(piperazin-1-yl)-9-trifluoromethyl-pyrido[3′,2′:4,5]thieno[3,2-d]pyrimidine]"
< 2000,2 to 50,"CCOc1nc(N2CCNCC2)nc2c1sc1nc(-c3ccccc3)cc(-c3ccccc3)c12 [4-Ethoxy-7,9-diphenyl-2-(piperazin-1-yl)-pyrido[3′,2′:4,5]thieno[3,2-d]pyrimidine]"
< 2000,2 to 50,"CCOc1nc(N2CCNCC2)nc2c1sc1nc(N3CCOCC3)c3c(c12)CCCC3 [8-Ethoxy-5-morpholino-10-piperazin-1-yl-pyrimido[4′,5′:4,5]thieno[2,3-c]-1,2,3,4-tetrahydro-isoquinoline]"
< 2000,2 to 50,"CCOc1nc(N2CCNCC2)nc2c1sc1nc(-c3ccc(OC)cc3)cc(C)c12 [4-Ethoxy-7-(4-methoxy-phenyl)-9-methyl-2-(piperazin-1-yl)-pyrido[3′,2′:4,5]thieno[3,2-d]pyrimidine]"
< 2000,2 to 50,"CCOc1nc(N2CCNCC2)c2sc3nc(-c4ccc(C(F)(F)F)cc4)cc(C)c3c2n1 [2-Ethoxy-7-(4-trifluoro-methyl-phenyl)-9-methyl-4-(piperazin-1-yl)-pyrido[3′,2′:4,5]thieno[3,2-d]pyrimidine]"
< 2000,2 to 50,"CCOc1nc(N2CCNCC2)nc2c1sc1nc(-c3ccncc3)cc(C(F)(F)F)c12 [4-Ethoxy-2-(piperazin-1-yl)-7-(4-pyridyl)-9-trifluoromethyl-pyrido[3′,2′:4,5]thieno[3,2-d]pyrimidine]"
< 2000,2 to 50,"CCOc1nc(N2CCNCC2)nc2c1sc1nc(-c3ccc[n+]([O-])c3)cc(C(F)(F)F)c12 [4-Ethoxy-7-(1-oxy-pyridin-3-yl)-2-(piperazin-1-yl)-9-trifluoromethyl-pyrido[3′,2′:4,5]thieno[3,2-d]pyrimidine]"
< 2000,< 2,"CCOc1nc(N2CCNCC2)nc2c1sc1nc(-c3ccc(NC(=O)c4ccncc4)cc3)cc(C(F)(F)F)c12 [N-(4-(4-Ethoxy-9-trifluoromethyl-2-piperazin-1-yl-pyrido[3′,2′:4,5]thieno[3,2-d]pyrimidin-7-yl)-phenyl)-isonicotinamide]"
< 2000,< 2,"CCOc1nc(N2CCNCC2)nc2c1sc1nc(-c3ccc(-c4cccc(N)c4)cc3)nc(C)c12 [7-(3′-Aminobiphen-4-yl)-4-ethoxy-9-methyl-2-piperazin-1-yl-thieno[2,3-d:4,5-d′]dipyrimidine]"
< 2000,2 to 50,"CCOc1nc(N2CCNCC2)nc2c1sc1nc(C)c(Cc3ccc(N)cc3)c(C)c12 [8-(4-Amino-benzyl)-4-ethoxy-7,9-dimethyl-2-(piperazin-1-yl)-pyrido[3′,2′:4,5]thieno[3,2-d]pyrimidine]"
< 2000,–,"CCOc1nc(N2CCNCC2)nc2c1sc1nc(-c3ccc(C(N)=O)cc3)cc(C(F)(F)F)c12 [4-(4-Ethoxy-9-trifluoromethyl-2-piperazin-1-yl-pyrido[3′,2′:4,5]thieno[3,2-d]pyrimidin-7-yl)-benzamide trifluoroacetate]"
< 2000,–,"CCOc1nc(N2CCNCC2)c2sc3nc(C)cc(-c4ccccc4)c3c2n1 [2-Ethoxy-7-methyl-9-phenyl-4-(piperazin-1-yl)-pyrido[3′,2′:4,5]thieno[3,2-d]pyrimidine-hydrochloride]"
–,2 to 50,"CCOc1nc(N2CCNCC2)c2sc3nc(C)cc(-c4ccccc4)c3c2n1 [2-Ethoxy-7-methyl-9-phenyl-4-(piperazin-1-yl)-pyrido[3′,2′:4,5]thieno[3,2-d]pyrimidine]"
–,2 to 50,"CCOc1nc(N2CCNCC2)c2sc3nc(-c4ccc5c(c4)OCO5)cc(C)c3c2n1 [2-Ethoxy-9-methyl-7-(3,4-methylenedioxyphenyl)-4-piperazin-1-yl-pyrido[3′,2′:4,5]thieno-[3,2-d]pyrimidine]"
–,2 to 50,"CCOc1nc(N2CCNCC2)nc2c1sc1nc(-c3ccc(OC(C)C)cc3)nc(C)c12 [4-Ethoxy-9-methyl-2-piperazin-1-yl-7-(4-iso-propoxy-phenyl)-thieno[2,3-d:4,5-d′]dipyrimidine]"
–,< 2,"CCOc1nc(N2CCNCC2)nc2c1sc1nc(-c3ccc(N4CCCCC4)cc3)cc(C(F)(F)F)c12 [4-Ethoxy-2-(piperazin-1-yl)-7-(4-(piperidin-1-yl)phenyl)-9-trifluoromethyl-pyrido[3′,2′:4,5]thieno[3,2-d]pyrimidine]"
–,< 2,"CCOc1nc(N2CCNCC2)nc2c1sc1nc(-c3ccc4c(c3)OCCO4)cc(C(F)(F)F)c12 [7-(2,3-Dihydrobenzo[b][1,4]dioxin-6-yl)-4-ethoxy-2-(piperazin-1-yl)-9-trifluoromethyl-pyrido[3′,2′:4,5]thieno[3,2-d]pyrimidine]"
–,2 to 50,"CCOc1nc(N2CCNCC2)nc2c1sc1nc(-c3ccccc3)nc(C)c12 [4-Ethoxy-9-methyl-7-phenyl-2-piperazin-1-yl-thieno[2,3-d:4,5-d′]dipyrimidine]"
–,< 2,"CCOc1nc(N2CCNCC2)nc2c1sc1nc(-c3ccc(Oc4ccc(OC)cc4)cc3)cc(CC)c12 [4-Ethoxy-9-ethyl-7-[4-(4-methoxyphenoxy)phenyl]-2-(piperazin-1-yl)-pyrido[3′,2′:4,5]thieno[3,2-d]pyrimidine]"
–,< 2,"CCOc1nc(N2CCNCC2)nc2c1sc1nc(-c3ccc(SC)cc3)cc(CC)c12 [4-Ethoxy-9-ethyl-7-(4-methylthio-phenyl)-2-(piperazin-1-yl)-pyrido[3′,2′:4,5]thieno[3,2-d]pyrimidine]"
–,< 2,"CCOc1nc(N2CCNCC2)nc2c1sc1nc(-c3ccc(-n4cccn4)cc3)cc(C(F)(F)F)c12 [4-Ethoxy-7-(4-(1H-pyrazol-1-yl)-phenyl)-2-piperazin-1-yl-9-trifluoromethyl-pyrido[3′,2′:4,5]thieno[3,2-d]pyrimidine]"
–,2 to 50,"CCOc1nc(N2CCNCC2)nc2c1sc1nc(-c3ccc(SC)cc3)cc(C)c12 [4-Ethoxy-9-methyl-7-(4-methylthio-phenyl)-2-piperazin-1-yl-pyrido[3′,2′:4,5]thieno[3,2-d]pyrimidine]"
–,< 2,"CCOc1nc(N2CCNCC2)nc2c1sc1nc(-c3ccc(-c4c(C)noc4C)cc3)nc(C)c12 [7-(4-[3,5-Dimethyl-isoxazol-4-yl]-phenyl)-4-ethoxy-9-methyl-2-piperazin-1-yl-thieno[2,3-d:4,5-d′]dipyrimidine]"
–,< 2,"CCOc1ccc(-c2cc(CC)c3c(n2)sc2c(OCC)nc(N4CCNCC4)nc23)cc1 [4-Ethoxy-7-(4-ethoxy-phenyl)-9-ethyl-2-(piperazin-1-yl)-pyrido[3′,2′:4,5]thieno[3,2-d]pyrimidine]"
–,< 2,"CCOc1nc(N2CCNCC2)nc2c1sc1nc(-c3ccc(-c4cc(OC)c(OC)c(OC)c4)cc3)nc(C)c12 [4-Ethoxy-9-methyl-2-piperazin-1-yl-7-(3′,4′,5′-trimethoxybiphen-4-yl)-thieno[2,3-d:4,5-d′]dipyrimidine]"
–,2 to 50,"CCOc1nc(N2CCNCC2)nc2c1sc1nc(-c3ccc(C(C)(C)C)cc3)nc(C)c12 [7-(4-tert-Butyl-phenyl)-4-ethoxy-9-methyl-2-piperazin-1-yl-thieno[2,3-d:4,5-d′]dipyrimidine]"
